Literature values, collected in US20100209495A1, “GRANULATES, PROCESS FOR PREPARING THEM AND PHARMACEUTICAL PRODUCTS CONTAINING THEM” (Mylan Laboratories, Inc., priority 2008, published 2010).

Conditions: at 37° C.

## CC(O)(CS(=O)(=O)c1ccc(F)cc1)C(=O)Nc1ccc(C#N)c(C(F)(F)F)c1 (stereo not shown) [bicalutamide, N-[4-cyano-3-(trifluoromethyl)phenyl]-3-(4-fluorophenyl) sulfonyl-2-hydroxy-2-methyl-propanamide]
  water solubility: 5 mg/1000 ml
